SMILES strings stand for the structures. Several values for one entry are separate records, joined by “and”; a condition that tells them apart may be missing. Identical values can stand only once.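 These data come from cells grown in 96-well plates and exposed to compound for 48 hours at five concentrations. GI50 is the concentration that inhibits growth by half. TGI: concentration producing complete growth inhibition.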 Bounds are passed on as bounds.

The test concerns MDA-MB-468 breast. Nature of the test: inhibition of tumour cell growth, NCI panel, 48 h.
For the compound `COc1cc(NC(=O)CSc2nc3ccc(C)cc3c(=O)n2Cc2ccccc2)cc(OC)c1OC`, the GI50 is 4.11 µM and the TGI is 68.1 µM.

Take `CCN1Cc2c(ccc(F)c2C#N)O[C@@H](C)CNC(=O)c2c(N)nn3ccc1nc23`: the GI50 was 12.5 µM and the TGI came out at 34.3 µM.

On to `CCC[CH2][Sn]([CH2]CCC)([CH2]CCC)[O]C(=O)c1ccc(Cl)cc1Cl`, for which the GI50 is 0.133 µM and the TGI turned out to be 0.274 µM.

Regarding `OC(CNCC1CCCO1)Cn1c2ccc(Cl)cc2c2cc(Cl)ccc21` (configuration not stated), the GI50 was 1.65 µM and the TGI is 3.2 µM.

On to `COc1cccc2c1C(=O)c1c(O)c3c(c(O)c1C2=O)C[C@@](O)(C(=O)CO)C[C@@H]3O[C@H]1C[C@H](N)[C@@H](O)[C@H](C)O1`, for which the GI50 was 0.094 µM and the TGI amounted to 0.304 µM.

Turning to `COc1ccc(NC(=O)COCCOCCNC[C@@H]2C(=O)O[C@H]3[C@H]2CC/C(COC(=O)OC/C2=C/CC[C@@]4(C)O[C@H]4[C@H]4OC(=O)[C@@H](CN(C)C)[C@@H]4CC2)=C\CC[C@@]2(C)O[C@@H]32)c(O)c1C(N)=O`, the GI50 is 3.04 µM and the TGI came to 10.8 µM.

Regarding `COC(=O)CCC1CCC(c2cc(F)ccc2F)(S(=O)(=O)c2ccc(Cl)cc2)CC1` (configuration not stated), the GI50 is 16.3 µM and the TGI is greater than 100 µM.

With `CC(C)COCC(CN(Cc1ccccc1)c1ccccc1)N1CCCC1` (configuration not stated), the GI50 was 1.82 µM and the TGI was 6.56 µM.

As for `Nc1nc(N)c2c(n1)NC(c1ccc(F)cc1)C1CCc3ccccc3C1=N2` (configuration not stated), the GI50 was 1.43 µM and the TGI amounted to 6.7 µM.

Take `COc1ccc(S(=O)(=O)Nc2cc(/C=C\c3cc(OC)c(OC)c(OC)c3)ccc2OC)cc1`: the GI50 is 0.168 µM and the TGI was greater than 100 µM.

Regarding `N#CC1=C(N)Oc2c(sc3c(Br)cccc23)C1c1ccc(Br)cc1` (configuration not stated), the GI50 was 0.763 µM and the TGI is 11.4 µM.

For the compound `COc1cc2c(cc1OCCCCCOc1ccc(-n3c(C)nc4ccccc4c3=O)cc1)N=C[C@@H]1CCCN1C2=O`, the GI50 is 0.168 µM and the TGI worked out at 0.462 µM.

Regarding `Cc1cc(NCc2cc(Nc3ccnc4cc(Cl)ccc34)ccc2F)nc(N2CCN(C)CC2)n1`, the GI50 was 1.7 µM and the TGI turned out to be 3.52 µM.

On to `CC1(O)CC(c2nc(-c3ccc4ccc(-c5ccccc5)nc4c3)c3c(N)nccn23)C1` (configuration not stated), for which the GI50 is 3.02 µM and 2.9 µM; the TGI is 12.8 µM and > 10 µM.

As for `COc1ccc(/C(=N\O)c2cc(C)c(OC)c(C)c2)cc1O`, the GI50 is 0.0146 µM and the TGI is greater than 100 µM.

`COc1cccc(OCCCN)c1-c1cc(Nc2cnc(C#N)cn2)n[nH]1`: the GI50 is 0.0407 µM and the TGI worked out at 2.04 µM.

As for `COc1cc(/C=N/NC(=O)c2cnn3c2NC(c2ccccc2)C3)ccc1Oc1ccccc1` (configuration not stated), the GI50 was 0.648 µM and the TGI worked out at 5.72 µM.

Turning to `COc1cc(/C=C/C(=O)c2c(C)nc3ccccc3c2/C=C/c2ccc(C)cc2)cc(OC)c1OC`, the GI50 is 1.88 µM and the TGI stood at 4.26 µM.

With `N#Cc1c(-c2cccs2)cc(-c2cnccn2)nc1SCC(=O)N/N=C/c1ccccc1`, the GI50 is 3.9 µM and the TGI amounted to 13.9 µM.

In the case of `Clc1ccc2nnnn2n1`, the GI50 was 5.06 µM and the TGI was 25.1 µM.

As to `CC(=C(c1ccc(OCCN2CCCC2)cc1)c1ccc(OCCN2CCCC2)cc1)c1ccc(Cl)cc1`, the GI50 was 2.37 µM and the TGI came to 5.01 µM.

Consider `COc1ccccc1N1CCN(CCc2c[nH]c3cc4c(cc23)OCO4)CC1`, for which the GI50 was 15.8 µM and the TGI was 44.5 µM.

With `Nc1nc2n[nH]nc2c(=O)[nH]1`, the GI50 is 0.0817 µM and the TGI was 0.792 µM.

For `CC(=O)c1cccc(Nc2nc3ccc(Cl)cc3c3[nH]c4ccccc4c23)c1`, the GI50 is 2.84 µM and the TGI worked out at 96.8 µM.

For the compound `C=C1C(=O)O[C@H]2[C@H]1CCC(/C=N/c1ncc(Br)cc1N)=C\CC[C@@]1(C)O[C@@H]21`, the GI50 is 1.2 µM and the TGI is 3.91 µM.

For `Oc1ccccc1CNCC12CC3CC(CC(C3)C1)C2`, the GI50 is 12.8 µM and the TGI worked out at 31.7 µM.

In the case of `C=C(C)[C@@H]1CC[C@]2(C)[C@H](CC=C3[C@@H]4[C@@H](C)[C@H](C)CC[C@]4(C(N)=O)CC[C@]32C)[C@@]1(C)CCC#N`, the GI50 is 3.15 µM and the TGI was determined as 12.8 µM.

As to `O=C(Nc1ccc2[nH]c(=S)sc2c1)Nc1ccccc1F`, the GI50 was 17.7 µM and the TGI was greater than 100 µM.

On to `COc1cc(Cl)cc(-c2nn(-c3cccc(NC(=O)Nc4cc(C(F)(F)F)cc(C(F)(F)F)c4)c3)cc2-c2ccncc2)c1`, for which the GI50 was 0.349 µM and the TGI came out at 3.15 µM.

On to `COC(=O)C1CCCN1C(=O)[C@@H]1CCCN1C(=O)[C@H](Cc1c[nH]c2ccccc12)NC(=S)Nc1cc(C(F)(F)F)cc(C(F)(F)F)c1` (some centres not stated), for which the GI50 was 1.78 µM and the TGI was 4.64 µM.

In the case of `CCCCCCCCCCC(C(O)c1ccccc1)N1CCCCC1` (configuration not stated), the GI50 was 1.58 µM and the TGI was 3.09 µM.

For the compound `O=C1C=CC[C@H](/C=C/c2ccccc2)O1`, the GI50 is 1.94 µM and the TGI is 11.5 µM.

As to `COc1ccc(/C=C(\C#N)n2nnc3ccccc32)cc1`, the GI50 was 0.272 µM and the TGI is 4.1 µM.

With `O=C(c1ccccc1)C(Br)C(Br)c1cccc([N+](=O)[O-])c1` (configuration not stated), the GI50 was 1.47 µM and the TGI was 3.08 µM.

As for `CN(C)CC1C(=O)O[C@H]2[C@H]1CC/C(COC(=O)c1cc3ccccc3[nH]1)=C\CC[C@@]1(C)O[C@@H]21` (some centres not stated), the GI50 was 1.44 µM and the TGI came to 3.14 µM.

Turning to `CCN1C(=O)N(c2ccccc2)C2NC(=S)N(/N=C/C=C/c3ccccc3)C21` (configuration not stated), the GI50 was 0.347 µM and the TGI is greater than 100 µM.

Values taken from PubChem BioAssay (NCI).
